Reference: US10294202B2, “Pyrrolidinones as herbicides” (FMC Corporation, priority 2013, dated 2019)

Experiments:
wheat (winter wheat) = experiment: Test C pre-/postemergence herbicide test; assay type: in vivo, Triticum aestivum
How it was run: (§1)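 Visual rating, 0 (no effect) to 100 (complete control), versus untreated controls after 13 to 15 days in the greenhouse. Pre: seeds in loam/sand, sprayed at planting. Post: 1- to 4-leaf plants (2 to 18 cm) in peat-based mix. Compounds in non-phytotoxic solvent plus surfactant.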

johnsongrass = experiment: Test C pre-/postemergence herbicide test; assay type: in vivo, Sorghum halepense
How it was run: as §1

morningglory = experiment: Test C pre-/postemergence herbicide test; assay type: in vivo, Ipomoea coccinea
How it was run: as §1

waterhemp = experiment: Test C pre-/postemergence herbicide test; assay type: in vivo, Amaranthus rudis
How it was run: as §1

velvetleaf = experiment: Test C pre-/postemergence herbicide test; assay type: in vivo, Abutilon theophrasti
How it was run: as §1

chickweed = experiment: Test C postemergence herbicide test; assay type: in vivo, Stellaria media
How it was run: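 Response is scored visually on a 0–100 scale (100 = complete control) relative to untreated controls, 13 to 15 days after treatment. Plants were sprayed postemergence at the 1- to 4-leaf stage (2 to 18 cm tall) and kept in a greenhouse.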

[1] = Postemergence, 8 g ai/ha, scale 0 to 100 (0 no effect, 100 complete control)
[2] = Postemergence, 16 g ai/ha, scale 0 to 100 (0 no effect, 100 complete control)
[3] = Postemergence, 31 g ai/ha, scale 0 to 100 (0 no effect, 100 complete control)
[4] = Postemergence, 62 g ai/ha, scale 0 (no effect) to 100 (complete control)
[5] = Preemergence, 31 g ai/ha, scale 0 to 100, 0 is no effect and 100 is complete control
[6] = Preemergence, 62 g ai/ha, scale 0 to 100 (0 no effect, 100 complete control)
[7] = Preemergence, 8 g ai/ha, scale 0 to 100
[8] = Preemergence, 16 g ai/ha, scale 0 to 100
[9] = 16 g ai/ha, scale 0 to 100 (0 no effect, 100 complete control)
[10] = 31 g ai/ha, scale 0 to 100 (0 no effect, 100 complete control)
[11] = 62 g ai/ha, scale 0 (no effect) to 100 (complete control)
[12] = Postemergence, 125 g ai/ha, scale 0 to 100 (0 no effect, 100 complete control)
[13] = Preemergence, 125 g ai/ha, scale 0 to 100 (0 no effect, 100 complete control)
[14] = 125 g ai/ha, scale 0 to 100 (0 no effect, 100 complete control)
[15] = Postemergence, 250 g ai/ha, scale 0 to 100 (0 no effect, 100 complete control)
[16] = 250 g ai/ha, scale 0 to 100 (0 no effect, 100 complete control)
[17] = Preemergence, 125 g ai/ha, scale 0 to 100

## CN1CC(c2ccc(F)cc2)C(C(=O)Nc2cccc(F)c2F)C1=O (stereo not drawn) [Compound 271]
Wheat (winter wheat); [1]
  Plant response rating, Wheat: 0
Wheat (winter wheat); [2]
  Plant response rating, Wheat: 0
Wheat (winter wheat); [3]
  Plant response rating, Wheat: 0
Wheat (winter wheat); [4]
  Plant response rating, Wheat: 0
Wheat (winter wheat); [5]
  Wheat plant response rating: 0
Wheat (winter wheat); [6]
  Wheat plant response rating: 0
Wheat (winter wheat); [7]
  Plant response rating, Wheat: 0
Wheat (winter wheat); [8]
  Plant response rating, Wheat: 0
johnsongrass; [1]
  Plant response rating, Johnsongrass: 10
johnsongrass; [2]
  Plant response rating, Johnsongrass: 10
johnsongrass; [3]
  Plant response rating, Johnsongrass: 10
johnsongrass; [4]
  Plant response rating, Johnsongrass: 10
johnsongrass; [5]
  Johnsongrass plant response rating: 0
johnsongrass; [6]
  Johnsongrass plant response rating: 10
johnsongrass; [7]
  Plant response rating, Johnsongrass: 0
johnsongrass; [8]
  Plant response rating, Johnsongrass: 0
morningglory; [1]
  Plant response rating, Morningglory: 0
morningglory; [2]
  Plant response rating, Morningglory: 0
morningglory; [3]
  Plant response rating, Morningglory: 10
morningglory; [4]
  Plant response rating, Morningglory: 45
morningglory; [5]
  Morningglory plant response rating: 0
morningglory; [6]
  Morningglory plant response rating: 10
morningglory; [7]
  Plant response rating, Morningglory: 0
morningglory; [8]
  Plant response rating, Morningglory: 0
waterhemp; [1]
  Plant response rating, Waterhemp: 0
waterhemp; [2]
  Plant response rating, Waterhemp: 0
waterhemp; [3]
  Plant response rating, Waterhemp: 0
waterhemp; [4]
  Plant response rating, Waterhemp: 5
waterhemp; [5]
  Waterhemp plant response rating: 0
waterhemp; [6]
  Waterhemp plant response rating: 35
waterhemp; [7]
  Plant response rating, Waterhemp: 0
waterhemp; [8]
  Plant response rating, Waterhemp: 0
velvetleaf; [1]
  Plant response rating, Velvetleaf: 0
velvetleaf; [2]
  Plant response rating, Velvetleaf: 0
velvetleaf; [3]
  Plant response rating, Velvetleaf: 5
velvetleaf; [4]
  Plant response rating, Velvetleaf: 5
velvetleaf; [5]
  Velvetleaf plant response rating: 0
velvetleaf; [6]
  Velvetleaf plant response rating: 10
velvetleaf; [7]
  Plant response rating, Velvetleaf: 0
velvetleaf; [8]
  Plant response rating, Velvetleaf: 0
chickweed; 8 g ai/ha, scale 0 to 100 (0 no effect, 100 complete control)
  Plant response rating, Chickweed: 0
chickweed; [9]
  Plant response rating, Chickweed: 5
chickweed; [10]
  Plant response rating, Chickweed: 5
chickweed; [11]
  Plant response rating, Chickweed: 50

## CN1CC(c2cccc(C(F)(F)F)c2)C(C(=O)Nc2ccccc2F)C1=O (stereo not drawn) [Compound 277]
Wheat (winter wheat); [2]
  Plant response rating, Wheat: 0
Wheat (winter wheat); [3]
  Plant response rating, Wheat: 0
Wheat (winter wheat); [4]
  Plant response rating, Wheat: 0
Wheat (winter wheat); [12]
  Plant response rating, Wheat: 0
Wheat (winter wheat); [5]
  Wheat plant response rating: 60
Wheat (winter wheat); [6]
  Wheat plant response rating: 70
Wheat (winter wheat); [8]
  Plant response rating, Wheat: 40
johnsongrass; [2]
  Plant response rating, Johnsongrass: 0
johnsongrass; [3]
  Plant response rating, Johnsongrass: 0
johnsongrass; [4]
  Plant response rating, Johnsongrass: 0
johnsongrass; [12]
  Plant response rating, Johnsongrass: 10
johnsongrass; [5]
  Johnsongrass plant response rating: 40
johnsongrass; [6]
  Johnsongrass plant response rating: 65
johnsongrass; [13]
  Plant response rating, Johnsongrass: 85
johnsongrass; [8]
  Plant response rating, Johnsongrass: 0
morningglory; [2]
  Plant response rating, Morningglory: 15
morningglory; [3]
  Plant response rating, Morningglory: 30
morningglory; [4]
  Plant response rating, Morningglory: 30
morningglory; [12]
  Plant response rating, Morningglory: 40
morningglory; [5]
  Morningglory plant response rating: 0
morningglory; [6]
  Morningglory plant response rating: 0
morningglory; [13]
  Plant response rating, Morningglory: 45
morningglory; [8]
  Plant response rating, Morningglory: 0
waterhemp; [2]
  Plant response rating, Waterhemp: 5
waterhemp; [3]
  Plant response rating, Waterhemp: 5
waterhemp; [4]
  Plant response rating, Waterhemp: 5
waterhemp; [12]
  Plant response rating, Waterhemp: 5
waterhemp; [5]
  Waterhemp plant response rating: 35
waterhemp; [6]
  Waterhemp plant response rating: 50
waterhemp; [13]
  Plant response rating, Waterhemp: 55
waterhemp; [8]
  Plant response rating, Waterhemp: 0
velvetleaf; [2]
  Plant response rating, Velvetleaf: 0
velvetleaf; [3]
  Plant response rating, Velvetleaf: 0
velvetleaf; [4]
  Plant response rating, Velvetleaf: 0
velvetleaf; [12]
  Plant response rating, Velvetleaf: 15
velvetleaf; [5]
  Velvetleaf plant response rating: 0
velvetleaf; [6]
  Velvetleaf plant response rating: 0
velvetleaf; [13]
  Plant response rating, Velvetleaf: 35
velvetleaf; [8]
  Plant response rating, Velvetleaf: 0
chickweed; [9]
  Plant response rating, Chickweed: 0
chickweed; [10]
  Plant response rating, Chickweed: 40
chickweed; [11]
  Plant response rating, Chickweed: 0
chickweed; [14]
  Plant response rating, Chickweed: 40

## CN1CC(c2ccc(F)c(F)c2)C(C(=O)Nc2ccccc2F)C1=O (stereo not drawn) [Compound 302]
Wheat (winter wheat); [3]
  Plant response rating, Wheat: 0
Wheat (winter wheat); [4]
  Plant response rating, Wheat: 0
Wheat (winter wheat); [12]
  Plant response rating, Wheat: 0
Wheat (winter wheat); [15]
  Plant response rating, Wheat: 0
Wheat (winter wheat); [5]
  Wheat plant response rating: 0
Wheat (winter wheat); [6]
  Wheat plant response rating: 5
Wheat (winter wheat); Preemergence, 250 g ai/ha
  Plant response rating (scale of 0 to 100), Wheat: 30
johnsongrass; [3]
  Plant response rating, Johnsongrass: 0
johnsongrass; [4]
  Plant response rating, Johnsongrass: 0
johnsongrass; [12]
  Plant response rating, Johnsongrass: 0
johnsongrass; [15]
  Plant response rating, Johnsongrass: 10
johnsongrass; [5]
  Johnsongrass plant response rating: 0
johnsongrass; [6]
  Johnsongrass plant response rating: 15
johnsongrass; [13]
  Plant response rating, Johnsongrass: 45
johnsongrass; Preemergence, 250 g ai/ha
  Plant response rating (scale of 0 to 100), Johnsongrass: 65
morningglory; [3]
  Plant response rating, Morningglory: 10
morningglory; [4]
  Plant response rating, Morningglory: 15
morningglory; [12]
  Plant response rating, Morningglory: 50
morningglory; [15]
  Plant response rating, Morningglory: 25
morningglory; [5]
  Morningglory plant response rating: 0
morningglory; [6]
  Morningglory plant response rating: 0
morningglory; [13]
  Plant response rating, Morningglory: 0
morningglory; Preemergence, 250 g ai/ha
  Plant response rating (scale of 0 to 100), Morningglory: 0
waterhemp; [3]
  Plant response rating, Waterhemp: 10
waterhemp; [4]
  Plant response rating, Waterhemp: 20
waterhemp; [12]
  Plant response rating, Waterhemp: 20
waterhemp; [15]
  Plant response rating, Waterhemp: 25
waterhemp; [5]
  Waterhemp plant response rating: 30
waterhemp; [6]
  Waterhemp plant response rating: 35
waterhemp; [13]
  Plant response rating, Waterhemp: 65
waterhemp; Preemergence, 250 g ai/ha
  Plant response rating (scale of 0 to 100), Waterhemp: 55
velvetleaf; [3]
  Plant response rating, Velvetleaf: 0
velvetleaf; [4]
  Plant response rating, Velvetleaf: 0
velvetleaf; [12]
  Plant response rating, Velvetleaf: 0
velvetleaf; [15]
  Plant response rating, Velvetleaf: 20
velvetleaf; [5]
  Velvetleaf plant response rating: 0
velvetleaf; [6]
  Velvetleaf plant response rating: 0
velvetleaf; [13]
  Plant response rating, Velvetleaf: 0
velvetleaf; Preemergence, 250 g ai/ha
  Plant response rating (scale of 0 to 100), Velvetleaf: 0
chickweed; [10]
  Plant response rating, Chickweed: 0
chickweed; [11]
  Plant response rating, Chickweed: 0
chickweed; [14]
  Plant response rating, Chickweed: 5
chickweed; [16]
  Plant response rating, Chickweed: 70

## O=C1NCC(c2cccc(Br)c2)C1C(=O)Nc1cccc(F)c1F (stereo not drawn) [Compound 309]
Wheat (winter wheat); [3]
  Plant response rating, Wheat: 0
Wheat (winter wheat); [4]
  Plant response rating, Wheat: 0
Wheat (winter wheat); [12]
  Plant response rating, Wheat: 0
Wheat (winter wheat); [15]
  Plant response rating, Wheat: 0
Wheat (winter wheat); [6]
  Wheat plant response rating: 0
Wheat (winter wheat); [17]
  Plant response rating, Wheat: 0
Wheat (winter wheat); Preemergence, 250 g ai/ha
  Plant response rating (scale of 0 to 100), Wheat: 0
johnsongrass; [3]
  Plant response rating, Johnsongrass: 0
johnsongrass; [4]
  Plant response rating, Johnsongrass: 0
johnsongrass; [12]
  Plant response rating, Johnsongrass: 0
johnsongrass; [15]
  Plant response rating, Johnsongrass: 15
johnsongrass; [5]
  Johnsongrass plant response rating: 10
johnsongrass; [6]
  Johnsongrass plant response rating: 10
johnsongrass; [17]
  Plant response rating, Johnsongrass: 60
johnsongrass; Preemergence, 250 g ai/ha
  Plant response rating (scale of 0 to 100), Johnsongrass: 80
morningglory; [3]
  Plant response rating, Morningglory: 60
morningglory; [4]
  Plant response rating, Morningglory: 10
morningglory; [12]
  Plant response rating, Morningglory: 25
morningglory; [15]
  Plant response rating, Morningglory: 10
morningglory; [5]
  Morningglory plant response rating: 0
morningglory; [6]
  Morningglory plant response rating: 0
morningglory; [17]
  Plant response rating, Morningglory: 10
morningglory; Preemergence, 250 g ai/ha
  Plant response rating (scale of 0 to 100), Morningglory: 10
waterhemp; [3]
  Plant response rating, Waterhemp: 0
waterhemp; [4]
  Plant response rating, Waterhemp: 5
waterhemp; [12]
  Plant response rating, Waterhemp: 10
waterhemp; [15]
  Plant response rating, Waterhemp: 10
waterhemp; [6]
  Waterhemp plant response rating: 0
waterhemp; [17]
  Plant response rating, Waterhemp: 30
waterhemp; Preemergence, 250 g ai/ha
  Plant response rating (scale of 0 to 100), Waterhemp: 40
velvetleaf; [3]
  Plant response rating, Velvetleaf: 5
velvetleaf; [4]
  Plant response rating, Velvetleaf: 5
velvetleaf; [12]
  Plant response rating, Velvetleaf: 5
velvetleaf; [15]
  Plant response rating, Velvetleaf: 15
velvetleaf; [6]
  Velvetleaf plant response rating: 0
velvetleaf; [17]
  Plant response rating, Velvetleaf: 0
velvetleaf; Preemergence, 250 g ai/ha
  Plant response rating (scale of 0 to 100), Velvetleaf: 15
chickweed; [10]
  Plant response rating, Chickweed: 30
chickweed; [11]
  Plant response rating, Chickweed: 50
chickweed; [14]
  Plant response rating, Chickweed: 65
chickweed; [16]
  Plant response rating, Chickweed: 70
